Results reported in ChEMBL document CHEMBL1154877, “An expeditious synthesis and anticancer activity of novel 4-(3'-indolyl)oxazoles” (Eur J Med Chem, 2010).

Columns and labels:
Format in all cases: functional, cell-based
PC-3 = experiment: Cytotoxicity against human PC3 cells after 48 hrs by MTT assay; conditions: PC-3, 48 h
DU-145 = experiment: Cytotoxicity against human DU145 cells after 48 hrs by MTT assay; conditions: DU-145, 48 h
LNCaP = experiment: Cytotoxicity against human LNCAP cells after 48 hrs by MTT assay
MCF7 = experiment: Cytotoxicity against human MCF7 cells after 48 hrs by MTT assay; conditions: MCF7, 48 h
[1] = Cytotoxicity against human MDA231 cells after 48 hrs by MTT assay; conditions: MDA-MB-231, 48 h
MIA PaCa-2 = experiment: Cytotoxicity against human MIAPaCa2 cells after 48 hrs by MTT assay; conditions: MIA PaCa-2, 48 h

Compound	IC50 (PC-3)	IC50 (DU-145)	IC50 (LNCaP)	IC50 (MCF7)	IC50 [1]	IC50 (MIA PaCa-2)
c1ccc(-c2nc(-c3c[nH]c4ccccc34)co2)cc1	170 µM	167 µM	461 µM	131 µM	171 µM	113 µM
Oc1ccc(-c2nc(-c3c[nH]c4ccccc34)co2)cc1	382 µM	247 µM	449 µM	580 µM	1000 µM	1000 µM
COc1cc(-c2nc(-c3c[nH]c4ccccc34)co2)ccc1O	303 µM	175 µM	445 µM	1000 µM	1000 µM	1000 µM
C=Cc1nc(-c2c[nH]c3ccccc23)co1	426 µM	59.8 µM	530 µM	1000 µM	1000 µM	37.6 µM
Cn1cc(-c2coc(-c3ccc(Cl)cc3)n2)c2ccccc21	302 µM	412 µM	378 µM	637 µM	790 µM	89.2 µM
c1ccc2c(-c3coc(-c4ccncc4)n3)c[nH]c2c1	298 µM	178 µM	238 µM	54.9 µM	105 µM	38.4 µM
Clc1ccc(Cn2cc(-c3coc(-c4ccc(Cl)cc4)n3)c3ccccc32)cc1	350 µM	80.5 µM	182 µM	14.1 µM	216 µM	26 µM
c1ccc2c(-c3coc(C4CCNCC4)n3)c[nH]c2c1	407 µM	381 µM	476 µM	294 µM	528 µM	230 µM
c1ccc2c(-c3cocn3)c[nH]c2c1	321 µM	93.5 µM	382 µM	1000 µM	1000 µM	1000 µM
C(=C\c1nc(-c2c[nH]c3ccccc23)co1)/c1ccccc1	221 µM	135 µM	183 µM	355 µM	1000 µM	872 µM
c1ccc(Cc2nc(-c3c[nH]c4ccccc34)co2)cc1	368 µM	349 µM	377 µM	1000 µM	1000 µM	1000 µM
Cc1nc(-c2c[nH]c3ccccc23)co1	337 µM	244 µM	316 µM	802 µM	1000 µM	688 µM
COc1ccc(-c2nc(-c3c[nH]c4ccccc34)co2)cc1OC	359 µM	300 µM	278 µM	759 µM	1000 µM	1000 µM
COc1cc(-c2nc(-c3cn(C)c4ccccc34)co2)ccc1OCc1ccccc1	450 µM	382 µM	368 µM	198 µM	1000 µM	318 µM
Clc1ccc(-c2nc(-c3c[nH]c4ccccc34)co2)cc1	151 µM	206 µM	505 µM	410 µM	608 µM	326 µM
COc1ccc(-c2nc(-c3c[nH]c4ccccc34)co2)cc1	133 µM	164 µM	507 µM	43.8 µM	108 µM	35 µM
Cn1cc(-c2coc(C3CCNCC3)n2)c2ccccc21	578 µM	376 µM	400 µM	1000 µM	1000 µM	759 µM
Fc1ccc(-c2nc(-c3c[nH]c4ccccc34)co2)cc1	42.8 µM	31.8 µM	59.8 µM	28 µM	90.4 µM	40.6 µM
